From ChEMBL document CHEMBL2169748 (J Med Chem, 2012)
Values after ≈ are worked out from the molar mass of the structure shown.

Key:
[1] = Volume of distribution at steady state in rat; assay type: ADME, organism-based; conditions: in vivo, read-out: Vdss
[2] = Solubility in aqueous solution at pH 6.5; assay type: physicochemical
[3] = Half life in dog; assay type: ADME, organism-based, Canis lupus familiaris; conditions: in vivo
[4] = Clearance in dog; assay type: ADME, organism-based, Canis lupus familiaris; conditions: in vivo
[5] = Permeability across MDCK cells; assay type: ADME, cell-based, Canis lupus familiaris; conditions: dog
[6] = Volume of distribution at steady state in dog; assay type: ADME, organism-based, Canis lupus familiaris; conditions: in vivo, read-out: Vdss
[7] = Clearance in rat; assay type: ADME, organism-based; conditions: in vivo
[8] = Oral bioavailability in dog; assay type: ADME, organism-based, Canis lupus familiaris; conditions: in vivo
[9] = Half life in rat; assay type: ADME, organism-based; conditions: in vivo
[10] = Oral bioavailability in rat; assay type: ADME, organism-based; conditions: in vivo

Row | Structure (SMILES) | Vd [1] | solubility [2] | half-life [3] | clearance [4] | Papp [5] | Vd [6] | clearance [7] | bioavailability [8] | half-life [9] | bioavailability [10]
1 | CCc1nc2ccccc2n1-c1nc(N2CCOCC2)c2nc(CN3CC(C4CCOCC4)C3)n(C)c2n1 | 6.5 L/kg | 338 µg/mL (≈ 654 µM) | 3.6 h | 25 mL/min/kg | 16 ×10⁻⁶ cm/s | 6.5 L/kg | 34 mL/min/kg | 56% | 2.6 h | 
2 | CCc1nc2ccccc2n1-c1nc(N2CCOCC2)c2nc(CN3CCC(C(C)(C)O)CC3)n(C)c2n1 | 4.1 L/kg |  | 6.4 h | 5 mL/min/kg |  | 2 L/kg | 19 mL/min/kg | > 100% | 1.5 h | 92%
